22 compounds from patent US10961252B2, “Quinazoline and indole compounds to treat medical disorders” (Achillion Pharmaceuticals, Inc., priority 2016, dated 2021) can be followed below.

Structures can show the parent of a compound that is named as a salt.

The first assay concerns Normal Human Serum (NHS). The experiment in a line: Hemolysis assay: lysis of rabbit erythrocytes (RE) by Normal Human Serum (NHS). The settings on record: rabbit erythrocyte, 0.5 h, Table 1, hemolysis of rabbit erythrocytes with NHS, GVB0 plus 10 mM Mg-EGTA, 37° C., read-out: IC50. It counts as cell-based. How it is done: The hemolysis assay was previously described by G. Ruiz-Gomez, et al., J. Med. Chem. (2009) 52: 6042-6052. Prior to the assay, the optimum concentration of Normal Human Serum (NHS) needed to achieve 100% lysis of rabbit erythrocytes (RE) is determined by titration. In the assay, NHS (Complement Technology) is diluted in GVB^0 Buffer (0.1% gelatin, 5 mM Veronal, 145 mM NaCl, 0.025% NaN3, pH 7.3, Complement Technology) plus 10 mM Mg-EGTA and incubated with test compound at various concentrations for 15 minutes at 37° C. RE (Complement Technology) freshly suspended in GVB^0 plus 10 mM Mg-EGTA are added to a final concentration of 1×10^8 cells/mL and reactions are incubated for 30 minutes at 37° C. Positive control reactions (100% lysis) consist of GVB^0 plus 10 mM Mg-EGTA with NHS and RE but without test compound; negative control reactions (0% lysis) consist of GVB^0 plus 10 mM Mg-EGTA with RE only. Samples are centrifuged at 2000 g for 3 minutes and supernatants collected. Absorbance at 405 nm (A405) is recorded using a microplate spectrophotometer. IC50 values are calculated by nonlinear regression from the percentage of hemolysis as a function of test compound concentration.
As a reminder, the IC50 is the concentration needed to halve the response being measured. Turning to `COc1cc2c(N)nc(N3CCN(C(=O)C[C@@H]4C[C@@H]5CCC[C@@H]5N4)CC3)nc2c(F)c1OC` [Compound 2, 1-(4-(4-Amino-8-fluoro-6,7-dimethoxyquinazolin-2-yl)piperazin-1-yl)-2-((2S,3aS,6aS)-octahydrocyclopenta[b]pyrrol-2-yl)ethan-1-one Hydrochloride], the IC50 was below 1000 nM.

For the compound `CCN[C@H](CC(=O)N1CC=C(c2nc(N)c3cc(OC)c(OC)c(F)c3n2)CC1)c1ccc(F)cc1` [Compound 4, (R)-1-(4-(4-Amino-8-fluoro-6,7-dimethoxyquinazolin-2-yl)-3,6-dihydropyridin-1(2H)-yl)-3-(ethylamino)-3-(4-fluorophenyl)propan-1-one], the IC50 was below 1000 nM.

Take `COc1cc2c(N)nc(N3CCN(C(=O)C[C@@H]4C[C@@H]5CCCC[C@@H]5N4)CC3)nc2c(F)c1OC` [Compound 3, 1-(4-(4-Amino-8-fluoro-6,7-dimethoxyquinazolin-2-yl)piperazin-1-yl)-2-((2S,3aS,7aS)-octahydro-1H-indol-2-yl)ethan-1-one Hydrochloride]: the IC50 was below 1000 nM.

As for `CCN[C@H](CC(=O)N1CCC(c2nc(N)c3cc(OC)c(OC)c(F)c3n2)C(C(=O)O)C1)c1ccc(F)cc1` (stereo partly drawn) [Compound 9, 4-(4-Amino-8-fluoro-6,7-dimethoxyquinazolin-2-yl)-1-((R)-3-(ethylamino)-3-(4-fluorophenyl)propanoyl)piperidine-3-carboxylic acid], the IC50 lay within 1000 to 10000 nM.

In the case of `CCN[C@H](CC(=O)N1CC2CCC(C1)N2c1nc(N)c2cc(OC)c(OC)c(F)c2n1)c1ccc(F)cc1` [Compound 13, (3R)-1-(8-(4-Amino-8-fluoro-6,7-dimethoxyquinazolin-2-yl)-3,8-diazabicyclo[3.2.1]octan-3-yl)-3-(ethylamino)-3-(4-fluorophenyl)propan-1-one], the IC50 is below 1000 nM.

Turning to `CCN[C@H](CC(=O)N1CCC(c2nc(N)c3cc(OC)c(OC)c(F)c3n2)CC1)c1ccc(F)cc1` [Compound 5, (R)-1-(4-(4-Amino-8-fluoro-6,7-dimethoxyquinazolin-2-yl)piperidin-1-yl)-3-(ethylamino)-3-(4-fluorophenyl)propan-1-one], the IC50 is 1000 to 10000 nM.

Regarding `CCN[C@H](CC(=O)N1CCC(c2nc(N)c3cc(OC)c(OC)c(F)c3n2)=C(C(=O)O)C1)c1ccc(F)cc1` [Compound 8, (R)-4-(4-Amino-8-fluoro-6,7-dimethoxyquinazolin-2-yl)-1-(3-(ethylamino)-3-(4-fluorophenyl)propanoyl)-1,2,5,6-tetrahydropyridine-3-carboxylic Acid], the IC50 is above 10000 nM.

With `CCN[C@H](CC(=O)N1CCC(c2nc(N)c3cc(OC)c(OC)c(F)c3n2)C(C(=O)OC)C1)c1ccc(F)cc1` (stereo partly drawn) [Compound 7, Methyl 4-(4-amino-8-fluoro-6,7-dimethoxyquinazolin-2-yl)-1-((R)-3-(ethylamino)-3-(4-fluorophenyl)propanoyl)piperidine-3-carboxylate], the IC50 was above 10000 nM.

As to `CCN[C@H](CC(=O)N1CCN(c2nc(N)c3cc4c(c(F)c3n2)OC(F)(F)O4)CC1)c1ccc(F)cc1` [Compound 12, (R)-1-(4-(8-Amino-2,2,4-trifluoro-[1,3]dioxolo[4,5-g]quinazolin-6-yl)piperazin-1-yl)-3-(ethylamino)-3-(4-fluorophenyl)propan-1-one], the IC50 lay in the range of 1000 to 10000 nM.

Take `COc1cc2c(N)nc(N3CCN(C(=O)CC4NCCS4)CC3)nc2c(F)c1OC` (stereo not shown) [Compound 1, 1-(4-(4-Amino-8-fluoro-6,7-dimethoxyquinazolin-2-yl)piperazin-1-yl)-2-(thiazolidin-2-yl)ethan-1-one Hydrochloride]: the IC50 is above 10000 nM.

Still in this assay, the particulars now being: rabbit erythrocyte, 0.5 h, Table 2, hemolysis of rabbit erythrocytes with NHS, GVB0 plus 10 mM Mg-EGTA, 37° C., read-out: IC50 (Stars).
Consider `CCN[C@H](CC(=O)N1CC=C(c2nc(N)c3cc(OC)c(OC)c(F)c3n2)CC1)c1ccc(C#N)cc1` [Compound 17, (R)-4-(3-(4-(4-Amino-8-fluoro-6,7-dimethoxyquinazolin-2-yl)-3,6-dihydropyridin-1(2H)-yl)-1-(ethylamino)-3-oxopropyl)benzonitrile], for which the IC50 was below 1000 nM.

For `COc1cc2c(N)nc(C3=CCN(C(=O)C[C@@H]4C[C@@H]5CCCC[C@@H]5N4)CC3)nc2c(F)c1OC` [Compound 18, 1-(4-(4-Amino-8-fluoro-6,7-dimethoxyquinazolin-2-yl)-3,6-dihydropyridin-1(2H)-yl)-2-((2S,3aS,7aS)-octahydro-1H-indol-2-yl)ethan-1-one TFA salt], the IC50 is below 1000 nM.

The assay is the same for the next values; noted with them: rabbit erythrocyte, 0.5 h, Table 3, hemolysis of rabbit erythrocytes with NHS, GVB0 plus 10 mM Mg-EGTA, 37° C., read-out: IC50 (Stars).
Regarding `COc1cc(C)c2[nH]ccc2c1CN1CCC(C)CC1c1ccc(S(C)(=N)=O)cc1` (stereo not shown) [Compound 25, 5-Methoxy-7-methyl-4-((4-methyl-2-(4-(S-methylsulfonimidoyl)phenyl)piperidin-1-yl)methyl)-1H-indole], the IC50 was below 1000 nM.

For the compound `COc1cc(C)c2[nH]ccc2c1CN1CC[C@H](C)C[C@@H]1c1ccc(S(C)(=N)=O)cc1` (stereo partly drawn) [Compound 23, 5-Methoxy-7-methyl-4-(((2R,4S)-4-methyl-2-(4-(S-methylsulfonimidoyl)phenyl)piperidin-1-yl)methyl)-1H-indole], the IC50 was above 10000 nM.

Consider `COc1cc(C)c2[nH]ccc2c1CN1CCC(C)CC1c1ccc(P(=O)(O)O)cc1` (stereo not shown) [Compound 26, 4-(1-((5-Methoxy-7-methyl-1H-indol-4-yl)methyl)-4-methylpiperidin-2-yl)phenylphosphonic Acid], for which the IC50 is below 1000 nM.

As for `COc1cc(C)c2[nH]ncc2c1CN1CC[C@@H](C)C[C@H]1c1ccc(C(=O)O)cc1` [Compound 21, 4-((2S, 4R)-1-((5-Methoxy-7-methyl-1H-indazol-4-yl) Methyl)-4-methylpiperidin-2-yl) Benzoic Acid], the IC50 is above 10000 nM.

In the case of `COc1cc(C)c2[nH]ccc2c1CN1CC[C@@H](C)C[C@@H]1c1ccc(C(=O)O)c2c1CCCC2` [Compound 35, 4-((2R,4R)-1-((5-Methoxy-7-methyl-1H-indol-4-yl)methyl)-4-methylpiperidin-2-yl)-5,6,7,8-tetrahydronaphthalene-1-carboxylic Acid], the IC50 is above 10000 nM.

Turning to `COc1cc(C)c2[nH]c(C)cc2c1CN1CC[C@@H](C)C[C@H]1c1ccc(C(=O)O)cc1` [Compound 24, 4-((2S, 4R)-1-((5-Methoxy-2,7-dimethyl-1H-indol-4-yl) Methyl)-4-methylpiperidin-2-yl) Benzoic Acid], the IC50 was above 10000 nM.

Regarding `COc1cc(C)c2[nH]ccc2c1CN1CCCC[C@H]1C1CCC(C(=O)O)CC1` (stereo partly drawn) [Compound 20, (1R,4S)-4-((S)-1-((5-Methoxy-7-methyl-1H-indol-4-yl)methyl)piperidin-2-yl) Cyclohexanecarboxylic Acid], the IC50 is above 10000 nM.

For `COc1cc(C)c2[nH]ccc2c1CN1CC[C@H](C)C[C@@H]1c1ccc(P(=O)(O)O)cc1` [Compound 33, 4-((2R, 4S)-1-((5-Methoxy-7-methyl-1H-indol-4-yl)methyl)-4-methylpiperidin-2-yl) Phenylphosphonic Acid], the IC50 is 1000 to 10000 nM.

Turning to `COc1cc(C)c2[nH]ccc2c1CN1CCC(C)CC1c1ccc(C(=O)NO)cc1` (stereo not shown) [Compound 27, N-Hydroxy-4-(1-((5-methoxy-7-methyl-1H-indol-4-yl)methyl)-4-methylpiperidin-2-yl)benzamide], the IC50 was below 1000 nM.

Take `COc1cc(C)c2[nH]ccc2c1CN1CC[C@@H](C)C[C@H]1c1ccc([S@@](C)(=N)=O)cc1` [Compound 30, 5-Methoxy-7-methyl-4-(((2S,4R)-4-methyl-2-(4-((S)—S-methylsulfonimidoyl)phenyl)piperidin-1-yl)methyl)-1H-indole]: the IC50 was below 1000 nM.
